Assay results: patent US11767341B2, “Lincosamide antibiotics and uses thereof” (President and Fellows of Harvard College, priority 2017, dated 2023)
Values after ≈ are worked out from the molar mass of the structure shown.

What was measured:
Assay in all cases: MIC determination
Type in all cases: cell-based
[1] = tested on: S. aureus ATCC 29213; conditions: Staphylococcus aureus, ATCC29213, S. aureus ATCC 29213; read-out: MIC
[2] = tested on: S. aureus BAA-1556 (USA 300); conditions: Staphylococcus aureus; S. aureus BAA-1556 (USA 300); read-out: MIC
[3] = tested on: S. aureus UNT96, NRS710, MP-618 (USA 100, Erythro >8); conditions: Staphylococcus aureus; S. aureus UNT96, NRS710, MP-618 (USA 100, Erythro >8); read-out: MIC
[4] = tested on: S. aureus UNT-146, MP-620, TP 506 (ermA); conditions: Staphylococcus aureus; S. aureus UNT-146, MP-620, TP 506 (ermA); read-out: MIC
[5] = tested on: S. aureus UNT-120, MP-619, NRS22 (USA 600, GISA); conditions: Staphylococcus aureus; S. aureus UNT-120, MP-619, NRS22 (USA 600, GISA); read-out: MIC
[6] = tested on: S. pneumoniae ATCC 49619; conditions: Streptococcus pneumoniae, ATCC49619; S. pneumoniae ATCC 49619; read-out: MIC
[7] = tested on: S. pneumoniae UNT-038, MP-626, TP 160 (mefA); conditions: Streptococcus pneumoniae
[8] = tested on: S. pneumoniae UNT-039, MP-627, TP1517 (mefA); conditions: Streptococcus pneumoniae
[9] = tested on: S. pneumoniae TP 1579 (ermB + tet(M, O)); conditions: Streptococcus pneumoniae
[10] = tested on: S. pneumoniae TP 1537 (ermB + mefA); conditions: Streptococcus pneumoniae; S. pneumoniae TP 1537 (ermB + mefA); read-out: MIC
[11] = tested on: S. pyogenes ATCC 19615; conditions: Streptococcus pyogenes, ATCC19615; S. pyogenes ATCC 19615; read-out: MIC
[12] = tested on: S. pyogenes UNT-014, MP-625 MacRes; conditions: Streptococcus pyogenes; S. pyogenes UNT-014, MP-625 MacRes; read-out: MIC
[13] = tested on: E. faecalis ATCC 29212; conditions: Enterococcus faecalis, ATCC29212, read-out: MIC
[14] = tested on: E. faecalis UNT-047 VRE; conditions: Enterococcus faecalis; E. faecalis UNT-047 VRE; read-out: MIC
[15] = tested on: K. pneumoniae ATCC 10031; conditions: Klebsiella pneumoniae, ATCC10031; K. pneumoniae ATCC 10031; read-out: MIC
[16] = tested on: K. pneumoniae IHMA 658692; KPC-2; conditions: Klebsiella pneumoniae; K. pneumoniae IHMA 658692; KPC-2; read-out: MIC
[17] = tested on: E. coli ATCC 25922; conditions: Escherichia coli, ATCC25922, E. coli ATCC 25922; read-out: MIC
[18] = tested on: E. coli GUEST131 (NDM-1); conditions: Escherichia coli
[19] = tested on: P. aeruginosa ATCC 27853; conditions: Pseudomonas aeruginosa, ATCC27853; P. aeruginosa ATCC 27853; read-out: MIC
[20] = tested on: H. influenzae ATCC 49247; conditions: Haemophilus influenzae, ATCC49247; H. influenzae ATCC 49247; read-out: MIC

Compound | MIC [1] [µg/mL] | MIC [2] [µg/mL] | MIC [3] [µg/mL] | MIC [4] [µg/mL] | MIC [5] [µg/mL] | MIC [6] [µg/mL] | MIC [7] [µg/mL] | MIC [8] [µg/mL] | MIC [9] [µg/mL] | MIC [10] [µg/mL] | MIC [11] [µg/mL] | MIC [12] [µg/mL] | MIC [13] [µg/mL] | MIC [14] [µg/mL] | MIC [15] [µg/mL] | MIC [16] [µg/mL] | MIC [17] [µg/mL] | MIC [18] [µg/mL] | MIC [19] [µg/mL] | MIC [20] [µg/mL]
CSC1O[C@H]([C@H](NC(=O)[C@H]2NC[C@@H]3C=CCO[C@@H]23)[C@H](C)Cl)C(O)[C@@H](O)[C@H]1O (stereo partly drawn) [FSA-24039] | 1 (≈ 2.36 µM) | > 32 | > 32 | > 32 | > 32 | 0.0625 (≈ 0.148 µM) | 0.125 (≈ 0.296 µM) | ≤ 0.0313 | 0.0625 (≈ 0.148 µM) | > 32 | 0.125 (≈ 0.296 µM) | 0.125 (≈ 0.296 µM) | 32 (≈ 75.7 µM) | > 32 | > 32 | > 32 | > 32 | > 32 | > 32 | 32 (≈ 75.7 µM)
CSC1O[C@H]([C@H](NC(=O)[C@@H]2[C@@H]3OCCCC[C@H]3CN2C)[C@H](C)Cl)C(O)C(O)[C@H]1O (stereo partly drawn) [FSA-24040] | ≤ 0.0313 | > 32 | > 32 | > 32 | > 32 | ≤ 0.0313 | ≤ 0.0313 | ≤ 0.0313 | ≤ 0.0313 | > 32 | ≤ 0.0313 | ≤ 0.0313 | 32 (≈ 70.6 µM) | > 32 | 8 (≈ 17.7 µM) | > 32 | > 32 | > 32 | > 32 | 8 (≈ 17.7 µM)
CSC1O[C@H]([C@H](NC(=O)[C@H]2NC[C@@H]3CCCO[C@H]32)[C@H](C)Cl)C(O)[C@@H](O)[C@H]1O (stereo partly drawn) [FSA-24041] | 0.5 (≈ 1.18 µM) | > 32 | > 32 | > 32 | > 32 | 0.0625 (≈ 0.147 µM) | 0.0625 (≈ 0.147 µM) | ≤ 0.0313 | ≤ 0.0313 | > 32 | ≤ 0.0313 | 0.0625 (≈ 0.147 µM) | 32 (≈ 75.3 µM) | > 32 | > 32 | > 32 | > 32 | > 32 | > 32 | 32 (≈ 75.3 µM)
